{"source": "patent US6218438A", "about": "“Copolymer compositions for treating viral infections” (Supratek Pharma, Inc., priority 1999, dated 2001)", "key": {"[1]": {"biological_target": "T1, HIV-1 reverse transcriptase (p51/p66 RT), RDDP activity (Human immunodeficiency virus type 1 group M subtype B, UniProt P03366)", "T1 construct": "10 ng of p51/p66 heterodimeric RT per assay were used", "experiment": "Inhibition of RNA dependent DNA polymerase activity of RT (RT RDDP)", "assay_type": "biochemical", "method": "(§1) BBNH and Fe(III)-BBNH complex at various concentrations were examined for the ability to inhibit RNA dependent and DNA dependent DNA polymerase activities as well as RNAse H activity of HIV-1 reverse transcriptase (RT RDDP, RT DDDP, and RT RNAse H, respectively). To analyze RT RDDP and RT DDDP the following reaction mixture (100 μl total volume) was used: 50 mM Tris-HCl (pH 7.8), 60 mM KCl, 10 mM MgCl2, 10 ng of p51/p66 RT, 0.1-0.5 units of template/primer, and 0.5-25 μM [^3 H]dNTP. Aliquots of the test compounds dissolved in DMSO were added to the reaction mixtures, incubated for 10-20 min. at 37° C. and than quenched with 500 μl of cold 20 mM sodium pyrophosphate in 10% dichloroacetic acid. After 10 min. on ice, the samples were filtered on Whatman 934-AH glass fiber filters and washed with 10% dichloroacetic acid and ethanol, and the radioactivity was determined by liquid scintillation analysis. To analyze RT RNAse H the following reaction mixture (50 μl total volume) was used: 5OmM Tris-HCl (pH 8.0), 60 mM KCl, 8 mM MgCl2, and variable amounts of ([^3 H]rG)-poly(dC). Generally, 10 ng of p51/p66 heterodimeric RT per assay were used. Aliquots of the test compounds dissolved in DMSO were added to the reaction mixtures, incubated for 20 min. at 37° C. and than quenched by placing the tubes on ice followed by the addition of 100 μl of cold 7% perchloric acid. After 10 min. on ice, the samples were centrifuged at 12,000 g for 15 min. 100 μl of the supernatants were carefully removed, and the radioactivity was determined by liquid scintillation analysis."}, "[2]": {"biological_target": "T2, HIV-1 reverse transcriptase (p51/p66 RT), RNAse H activity (Human immunodeficiency virus type 1 group M subtype B, UniProt P03366)", "T2 construct": "10 ng of p51/p66 heterodimeric RT per assay were used", "experiment": "Inhibition of RNAse H activity of RT", "assay_type": "biochemical", "method": "as §1"}, "[3]": {"experiment": "Solubility of Fe(III)BBNH in water and organic solvents", "assay_type": "physicochemical", "settings": "room temperature, 180 min", "method": "One mg of Fe(III)BBNH was dissolved in 1 ml of dimethyl sulfoxide (DMSO). Aliquots of the solution were further diluted with DMSO to achieve the following final concentrations: […]. Each concentration point of was prepared in triplicates. The aliquots […] of the samples were transferred in 96-well plate. The optical densities (OD) at […] of all the samples were measured by using Microplate Reader.\nThe samples of Fe(III)BBNH (1 mg each) were placed in 1 ml of the following solvents:\nThe samples were intensively agitated during three hours at room temperature using a rotator. After that the samples were centrifuged at 10,000 g for 10 minutes. The supernatants (500 μl each) were separated and then were dried by using a speed-vac centrifuge. Each sample was then dissolved in 500 μl DMSO and aliquots (50 μl each) were transferred to 96-well plate. The optical densities were determined at λ400 nm for using microplate reader. Concentrations of the test compound in the samples were then determined by using the above shown calibration data. Each concentration of the test compound was measured in triplicates."}, "[4]": {"experiment": "Solubility of Fe(III)BBNH in Pluronic P85 formulations", "assay_type": "physicochemical", "method": "Various amounts of Fe(III)BBNH were dissolved in 200 μl dimethyl formamide and aliquots (20 μl each) were mixed with the equal volumes of Pluronic P85 solutions of various concentrations in methanol. The water solution of sodium acetate (10 μl) was added to each sample to the final concentration of the salt of 60 mM. The samples were dried by using a speed-vac centrifuge. Each sample was dissolved in 100 μl of 10% Pluronic P85 solution in water. The samples were intensively agitated during two hours at room temperature using a rotator. After that the samples were centrifuged at 10,000 g for 10 min. The supernatants were separated and then diluted with 10% Pluronic P85 solution in water to fit the range of calibration curve. The aliquots (50 μl each) were transferred to 96-well plate and analyzed. The optical densities were determined at λ400 nm using a microplate reader. Fe(III)BBNH concentrations in the samples were then determined by using the calibration shown in Example 4A. Each concentration of Fe(III)BBNH was analyzed in triplicates. Each concentration of Fe306 was measured in triplicates."}, "[5]": {"system": "HIV-1 replication in cells", "experiment": "Inhibition of HIV-1 replication in infected cells (general statement)", "assay_type": "cell-based"}}}
{"smiles": "CC(C)(C)c1ccc(C(=O)NN=Cc2c(O)ccc3ccccc23)cc1.C[O-].[Cl-].[Cl-].[Fe+3]", "note": "[Fe(III)-BBNH]", "values": [{"measurement": "IC50", "setting": "[1]", "value": "400 ± 80", "unit": "nM"}, {"measurement": "Ratio BBNH/Fe(III)-BBNH (IC50), RT RDDP", "setting": "[1]", "value": 4.8}, {"measurement": "IC50", "setting": "[2]; 10 min. preincubation", "value": "500 ± 70", "unit": "nM"}, {"measurement": "Ratio BBNH/Fe(III)-BBNH (IC50), RT RNase H", "setting": "[2]; 10 min. preincubation", "value": 7}, {"measurement": "IC50", "setting": "[2]; No preincubation", "value": "900 ± 500", "unit": "nM"}, {"measurement": "Ratio BBNH/Fe(III)-BBNH (IC50), RT RNase H", "setting": "[2]; No preincubation", "value": "> 50"}, {"measurement": "Solubility of Fe(III)BBNH dissolved in the sample", "setting": "[3]; Acetonitrile 100%", "value": 163.6, "unit": "µg/mL"}, {"measurement": "Solubility of Fe(III)BBNH dissolved in the sample", "setting": "[3]; Acetonitrile: 10% H2O", "value": 491.4, "unit": "µg/mL"}, {"measurement": "Solubility of Fe(III)BBNH dissolved in the sample", "setting": "[3]; Acetonitrile: 20% H2O", "value": 293.9, "unit": "µg/mL"}, {"measurement": "Solubility of Fe(III)BBNH dissolved in the sample", "setting": "[3]; DMFA 100%", "value": 1000.2, "unit": "µg/mL"}, {"measurement": "Solubility of Fe(III)BBNH dissolved in the sample", "setting": "[3]; DMSO 100%", "value": 1001.4, "unit": "µg/mL"}, {"measurement": "Solubility of Fe(III)BBNH dissolved in the sample", "setting": "[3]; Methanol 100%", "value": 505.6, "unit": "µg/mL"}, {"measurement": "Solubility of Fe(III)BBNH dissolved in the sample", "setting": "[3]; Methanol: 10% H2O", "value": 206.7, "unit": "µg/mL"}, {"measurement": "Solubility of Fe(III)BBNH dissolved in the sample", "setting": "[3]; Water 100%", "value": "< 0.001", "unit": "µg/mL"}, {"measurement": "Solubility", "setting": "[4]; 1% P85, 1 mg/ml added, 120 min", "value": 1120, "unit": "µg/mL"}, {"measurement": "Solubility", "setting": "[4]; 1% P85, 2 mg/ml added", "value": 2120, "unit": "µg/mL"}, {"measurement": "Solubility", "setting": "[4]; 1% P85, 5 mg/ml added", "value": 1400, "unit": "µg/mL"}, {"measurement": "Solubility", "setting": "[4]; 1% P85, 10 mg/ml added, 120 min", "value": 1390, "unit": "µg/mL"}, {"measurement": "Solubility", "setting": "[4]; 1% P85, 20 mg/ml added, 120 min", "value": 730, "unit": "µg/mL"}, {"measurement": "Solubility", "setting": "[4]; 1% P85, 30 mg/ml added, 120 min", "value": 10, "unit": "µg/mL"}, {"measurement": "Solubility", "setting": "[4]; 1% P85, 40 mg/ml added, 120 min", "value": 30, "unit": "µg/mL"}, {"measurement": "Solubility", "setting": "[4]; 2% P85, 1 mg/ml added, 120 min", "value": 1130, "unit": "µg/mL"}, {"measurement": "Solubility", "setting": "[4]; 2% P85, 2 mg/ml added", "value": 2160, "unit": "µg/mL"}, {"measurement": "Solubility", "setting": "[4]; 2% P85, 5 mg/ml added", "value": 5020, "unit": "µg/mL"}, {"measurement": "Solubility", "setting": "[4]; 2% P85, 10 mg/ml added, 120 min", "value": 3100, "unit": "µg/mL"}, {"measurement": "Solubility", "setting": "[4]; 2% P85, 20 mg/ml added, 120 min", "value": 2710, "unit": "µg/mL"}, {"measurement": "Solubility", "setting": "[4]; 2% P85, 30 mg/ml added, 120 min", "value": 2390, "unit": "µg/mL"}, {"measurement": "Solubility", "setting": "[4]; 2% P85, 40 mg/ml added, 120 min", "value": 420, "unit": "µg/mL"}, {"measurement": "Solubility", "setting": "[4]; 3% P85, 1 mg/ml added, 120 min", "value": 1040, "unit": "µg/mL"}, {"measurement": "Solubility", "setting": "[4]; 3% P85, 2 mg/ml added", "value": 2240, "unit": "µg/mL"}, {"measurement": "Solubility", "setting": "[4]; 3% P85, 5 mg/ml added", "value": 5060, "unit": "µg/mL"}, {"measurement": "Solubility", "setting": "[4]; 3% P85, 10 mg/ml added, 120 min", "value": 7420, "unit": "µg/mL"}, {"measurement": "Solubility", "setting": "[4]; 3% P85, 20 mg/ml added, 120 min", "value": 5150, "unit": "µg/mL"}, {"measurement": "Solubility", "setting": "[4]; 3% P85, 30 mg/ml added, 120 min", "value": 5140, "unit": "µg/mL"}, {"measurement": "Solubility", "setting": "[4]; 3% P85, 40 mg/ml added, 120 min", "value": 2960, "unit": "µg/mL"}, {"measurement": "Solubility", "setting": "[4]; 5% P85, 1 mg/ml added, 120 min", "value": 1090, "unit": "µg/mL"}, {"measurement": "Solubility", "setting": "[4]; 5% P85, 2 mg/ml added", "value": 2080, "unit": "µg/mL"}, {"measurement": "Solubility", "setting": "[4]; 5% P85, 5 mg/ml added", "value": 5090, "unit": "µg/mL"}, {"measurement": "Solubility", "setting": "[4]; 5% P85, 10 mg/ml added, 120 min", "value": 10510, "unit": "µg/mL"}, {"measurement": "Solubility", "setting": "[4]; 5% P85, 20 mg/ml added, 120 min", "value": 10360, "unit": "µg/mL"}, {"measurement": "Solubility", "setting": "[4]; 5% P85, 30 mg/ml added, 120 min", "value": 12250, "unit": "µg/mL"}, {"measurement": "Solubility", "setting": "[4]; 5% P85, 40 mg/ml added, 120 min", "value": 10480, "unit": "µg/mL"}, {"measurement": "Solubility", "setting": "[4]; 10% P85, 1 mg/ml added, 120 min", "value": 1080, "unit": "µg/mL"}, {"measurement": "Solubility", "setting": "[4]; 10% P85, 2 mg/ml added", "value": 2060, "unit": "µg/mL"}, {"measurement": "Solubility", "setting": "[4]; 10% P85, 5 mg/ml added", "value": 5160, "unit": "µg/mL"}, {"measurement": "Solubility", "setting": "[4]; 10% P85, 10 mg/ml added, 120 min", "value": 10710, "unit": "µg/mL"}, {"measurement": "Solubility", "setting": "[4]; 10% P85, 20 mg/ml added, 120 min", "value": 19060, "unit": "µg/mL"}, {"measurement": "Solubility", "setting": "[4]; 10% P85, 30 mg/ml added, 120 min", "value": 22870, "unit": "µg/mL"}, {"measurement": "Solubility", "setting": "[4]; 10% P85, 40 mg/ml added, 120 min", "value": 26240, "unit": "µg/mL"}, {"measurement": "antiviral activity against HIV-1 replication in cells", "setting": "[5]", "value": "no antiviral activity against HIV-1 replication in cells"}, {"measurement": "inhibition of HIV-1 replication in cells, water-organic formulations", "setting": "[5]; water-organic formulations", "value": "very low activity"}]}
